# Data published in patent US8057810B2, “Peptide substance revealing an immunogeroprotective effect, pharmaceutical composition on its base and the method of its application” (priority 2006, dated 2011).
# Marks after values point to notes of the source that are not given here. Residues, ends and D or L forms follow the SMILES beside them.
# Experiments:
# [1] = system: elderly and old patients with age-related immune status decline; experiment: Clinical application in elderly and old patients exposed to small doses of ionizing irradiation; format: in vivo, human
# Description: The efficacy of pharmaceutical composition, containing an effective amount of peptide H-Glu-Asp-Pro-OH as an active base, was studied in elderly and old patients, exposed to long-term ionizing irradiation in small doses.
# The main group consisted of 38 elderly patients (18 men, 20 women), who were divided into 3 groups according to the intensity of immune status changes. […] Elderly and old patients with age-related decrease of the immune functions were injected with the pharmaceutical composition containing peptide H-Glu-Asp-Pro-OH in the dose of 10.0 μg in 1 ml of sterile 0.9% NaCl solution intramuscularly, daily, once a day for 10 days. 32 control group patients (14 men, 18 women) received only conventional treatment. The patients of both groups were from 62 to 83 years old. The efficacy of the pharmaceutical composition containing peptide H-Glu-Asp-Pro-OH was estimated judging by the dynamics of the patients' complaints and a set of objective indices, such as common blood and urine tests, immunologic study of peripheral blood (the number of T- and B-lymphocytes was estimated using the immunofluorescence method with monoclonal antibodies to CD3, CD4, CD8, CD20 differentiation lymphocytes antigens; content of immunoglobulins of different classes—using Mancini's method of radial immunodiffusion in the gel, T-lymphocytes functional activity—in lymphocyte migration inhibition reaction (LMIR) with Con A.
# white mongrel male mice = experiment: Acute toxicity, single intramuscular administration; format: in vivo; details: single i.m. 1-5 mg/kg, dose exceeding the therapeutic one by more than 5000 times
# Description: Common toxicity of H-Glu-Asp-Pro-OH was studied according to the requirements stated in the “Manual for experimental (pre-clinical) study of new pharmacological substances” (2005): acute toxicity in case of single administration of the substance and sub-acute and chronic toxicity in case of long-term administration of the peptide.
# The study of acute toxicity was performed on 60 white mongrel male mice with body weight of 18-21 g. The animals were randomly subdivided into 6 equal groups. The substance was administered to the animals once, intramuscularly, in the doses of 1 mg/kg, 2 mg/kg, 3 mg/kg, 4 mg/kg, 5 mg/kg in 0.25 ml of sterile 0.9% NaCl solution. The control animals received 0.9% NaCl solution in the same volume. The study of subacute toxicity was performed on 50 white mongrel male rats with body weight of 170-210 g. Experimental animals received the substance daily, intramuscularly for 90 days in the doses of 1 μg/kg, 0.1 mg/kg, 1 mg/kg in 0.5 ml of sterile 0.9% NaCl solution. […] Upon completion of the experiment biochemical and coagulologic indices of the blood were also evaluated. […] Traditional methods were used for the evaluation of the following indices of the animals' peripheric blood: the quantity of erythrocytes, hemoglobin, reticulocytes, thrombocytes, leukocytes, leukocyte formula, erythrocyte sedimentation rate (ESR), erythrocyte resistance. […]
# [2] = patients 62-83 years, after treatment including the peptide, i.m. daily for 10 days
smiles,measurement,setting,value
"N[C@@H](CCC(=O)O)C(=O)N[C@@H](CC(=O)O)C(=O)N1CCC[C@H]1C(=O)O [Peptide H-Glu-Asp-Pro-OH, glutamyl-aspartyl-proline] (H-Glu-Asp-Pro-OH)",Patients in whom disordered immune system indices were normalized,"[1]; composition in different doses with symptomatic means, 56% in the control group",82%
same,Side effects in patients,"[1]; elderly and old patients, composition in different doses","does not exert any side effects, complications or drug addiction"
same,General state and asthenic syndrome after the treatment course,[1]; elderly people in the three main groups,significant improvement of the general state and reduction of the asthenic syndrome
same,"CD3+, %",[1]; [2],55.7 ± 2.6 %
same,"CD3+, ×10^9/l",[1]; [2],1.86 ± 0.05 ×10^9/l
same,"CD4+, %",[1]; [2],34.6 ± 2.0 %
same,"CD4+, ×10^9/l",[1]; [2],0.67 ± 0.09 ×10^9/l
same,CD4+/CD8+,[1]; [2],1.4*#
same,"CD8+, %",[1]; [2],24.9 ± 1.8%
same,"CD8+, ×10^9/l",[1]; [2],0.46 ± 0.07 ×10^9/l
same,"CD20+, %",[1]; [2],12.0 ± 0.7%
same,"CD20+, ×10^9/l",[1]; [2],0.20 ± 0.01 ×10^9/l
same,IgA,[1]; [2],2.1 ± 0.3 g/L
same,IgG,[1]; [2],14.9 ± 1.7 g/L
same,IgM,[1]; [2],1.64 ± 0.06 g/L
same,LMIR (lymphocyte migration inhibition reaction with Con A),[1]; [2],70.4 ± 4.9 %
same,Leukocytes,[1]; [2],5.6 ± 0.1 ×10^9/l
same,"Lymphocytes, %",[1]; [2],35.1 ± 2.1%
same,"Lymphocytes, ×10^9/l",[1]; [2],1.87 ± 0.05 ×10^9/l
same,Acute toxicity: toxic reactions,white mongrel male mice,does not cause toxic reactions
